This is an account of results in US12583818B2 (DAEGU-GYEONGBUK MEDICAL INNOVATION FOUNDATION, priority 2020, dated 2026).

Experiment [1] deals with MDA-MB 231 triple negative breast cancer cell line. As to the kind of experiment: MDA-MB 231 protein expression inhibition (Western blotting, cycline D1 vs Vinculin). It counts as cell-based. As to conditions: Homo sapiens, compound 10 μM, 72 hours, cycline D1 Western blot, read-out: MBA-MB-231 (amount of the protein compared to the DMSO-treated control group). The method, then:
In order to confirm the ability of the compound represented by formula 1 according to the present invention to inhibit the protein expression of MDA-MB 231 triple negative breast cancer cell line, the following experiment was performed, and the results are shown in Table 3 below.
MDA-MB-231 cells were cultured in a 5% CO2 incubator at 37° C. using RPMI medium supplemented with 10% FBS and 1% penicillin/streptomycin.
The cells were washed with PBS once a day, and then replaced with a new medium. The cells grown at the density of at least 90% 1 day before the experiment were detached using trypsin/EDTA, and then plated at the density of 100,000 per well in a 6-well plate.
On the next day of culture, the compound prepared in each example was treated at a concentration of 10 μM, and DMSO was treated at a concentration of 0.1% of the total as the control, followed by incubation for 72 hours. After 72 hours, the cells were washed twice with PBS, collected by scraping, and centrifuged at 13,000 rpm for 3 minutes to remove all the supernatant and only cells were taken.
RIPA buffer (containing 1× protease inhibitor and phosphatase inhibitor) was added to the prepared cells (80 μl/well), and the plate was shaken once every 5 minutes to disrupt the cells for a total of 15 minutes. The disrupted cells were centrifuged at 13,000 rpm for 15 minutes to collect only the supernatant protein. The obtained protein was quantified using a BCA protein quantification kit (Pierece, MA, USA), and a total of 10 μg of the protein was used for Western blotting.
The protein sample was isolated by 10% SDS-PAGE, and transferred to a PVDF membrane. Anti-human cycline D1 antibody (Cell signal) and anti-Vinculin antibody were bound to the protein sample, and the expression of the protein was measured by using an ECL reagent and LAS4000 equipment. The measurement results were quantified and generalized using ImageJ. The results are shown in Table 3 below by dividing the grades A to D according to the amount of the protein compared to the DMSO-treated control group.
In general terms: In western blotting, separated proteins are transferred to a membrane and probed.

For the next experiment, the target named is T1, Pin1 (Homo sapiens, UniProt Q13526).
T1 construct: purchased Anaspec
Kind of experiment: Evaluation of Pin1 enzyme inhibitory activity (Sensolyte Green Pin1 assay kit). The experiment is classed as biochemical. The procedure, abridged: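 Compounds were tested at four working concentrations (100, 10, 1, 0.1 μM), mixed with Pin1 (50 μg/ml stock dilution), developer and substrate (1 μM as prepared). Fluorescence at 490/520 nm was recorded after 2 h in the dark at room temperature. Results were grouped into grades A–D by inhibiting concentration.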

Experiment [2] concerns A2780 cells (ovarian cancer cells). Kind of experiment: Cell viability of A2780 cells (Cell-titer Glo). It counts as cell-based. To be noted: Homo sapiens. Summed up: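 A2780 ovarian cancer cells seeded at 3000 viable cells/well in RPMI-1640 with 10% FBS, dosed the next day and grown 3 days. Viability measured by Cell-titer Glo luminescence.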
Experiment [3] has as its system A2780-SP cells (ovarian cancer stem cells). Kind of experiment: Sphere cell viability of A2780-SP cells (Cell-titer Glo). It counts as cell-based. The procedure, abridged:
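A2780-SP ovarian cancer stem cells grown as spheres in ultra-low-attachment wells (1,500 cells/well) in neurobasal stem-cell medium with bFGF, EGF, B27. Compound added the day after plating, re-dosed on day 4, 8-day culture total; viability by CellTiter-Glo luminescence.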

Setting [4] is: concentration at which the Pin1 enzyme activity is inhibited, 2 hours at room temperature, fluorescence 490 nm/520 nm, read-out: Pin 1 inhibition.
Where [5] appears, read: 72 h, cell viability, culture for 3 days, read-out: A2780.
The mark [6] stands for this setting: A2780, Table 5, read-out: A2780 cell concentration.
[7] abbreviates: Table 2, read-out: concentration at which Pin1 inhibitory activity was exhibited.
The mark [8] stands for this setting: 192 h, sphere cell viability, culture for 8 days, read-out: A2780-SP.
Where [9] appears, read: Table 5, read-out: the concentration (second list of b710, cell line not named; matches A2780-SP column).

Structures are written as SMILES. Like-named read-outs stand apart in the source and are kept apart here. Where only a bound is given, the exact number is not on record here.

T1 sequence (Q13526 whole entry): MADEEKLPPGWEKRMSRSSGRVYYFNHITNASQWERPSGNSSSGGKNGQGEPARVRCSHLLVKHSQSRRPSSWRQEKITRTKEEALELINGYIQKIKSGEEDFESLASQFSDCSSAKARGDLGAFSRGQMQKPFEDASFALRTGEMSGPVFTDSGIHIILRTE

`CN(C)CCCOc1ccc(S(=O)(=O)NCCCc2c[nH]c3ccccc23)cc1` [Example 22, N-(3-(1H-indol-3-yl)propyl)-4-(3-(dimethylamino)propoxy)benzenesulfonamide]: in experiment [1], the activity at 10 µM was 70 to 100%. Besides, the IC50 at Pin1 (setting [4]) lay within 10000 to 100000 nM.
The corresponding values for `CN1CCN(CCCOc2ccc(S(=O)(=O)NCCCc3c[nH]c4ccccc34)cc2)CC1` [Example 31, N-(3-(1H-indol-3-yl)propyl)-4-(3-(4-methylpiperazin-1-yl)propoxy)benzenesulfonamide] are 50 to 70% and 1000 to 10000 nM.
For `CCN(CC)CCCOc1ccc(S(=O)(=O)NCCCc2c[nH]c3ccccc23)cc1` [Example 35, N-(3-(1H-indol-3-yl)propyl)-4-(3-(diethylamino)propoxy)benzenesulfonamide] the same measures were 0 to 35% and 10000 to 100000 nM.
For `CCN1CCN(CCCOc2ccc(S(=O)(=O)NCCCc3c[nH]c4ccccc34)cc2)CC1` [Example 36, N-(3-(1H-indol-3-yl)propyl)-4-(3-(4-ethylpiperazin-1-yl)propoxy)benzenesulfonamide] the same measures were 70 to 100% and 1000 to 10000 nM.
Take `O=C1CCCN1CCCOc1ccc(S(=O)(=O)NCCCc2c[nH]c3ccccc23)cc1` [Example 44, N-(3-(1H-indol-3-yl)propyl)-4-(3-(2-oxopyrrolidin-1-yl)propoxy)benzenesulfonamide]: the activity at 10 µM in experiment [1] fell in the range of 70 to 100%. Besides, the IC50 at Pin1 (setting [4]) was above 100000 nM.
For `O=S(=O)(NCCCc1c[nH]c2ccccc12)c1ccc(OCCCN2CCNCC2)cc1` [Example 45, N-(3-(1H-indol-3-yl)propyl)-4-(3-(piperazin-1-yl)propoxy)benzenesulfonamide] the same measures were 70 to 100% and 1000 to 10000 nM.
For `CN1CCC(CCOc2ccc(S(=O)(=O)NCCCc3c[nH]c4ccccc34)cc2)CC1` [Example 55, N-(3-(1H-indol-3-yl)propyl)-4-(2-(1-methylpiperidin-4-yl)ethoxy)benzenesulfonamide] the same measures were 70 to 100% and 10000 to 100000 nM.
Consider `CN1CCN(CCCOc2ccc(S(=O)(=O)NCCCc3c[nH]c4ccc(F)cc34)cc2)CC1` [Example 56, N-(3-(5-fluoro-1H-indol-3-yl)propyl)-4-(3-(4-methylpiperazin-1-yl)propoxy)benzenesulfonamide], for which the IC50 in experiment [2] (setting [5]) is 1000 to 10000 nM; in experiment [2] (setting [6]), below 10000 nM; at Pin1 (setting [7]) it was below 1000 nM; at Pin1 (setting [4]), below 1000 nM; in experiment [3] (setting [8]), below 1000 nM; in experiment [3] (setting [9]), below 1000 nM. In addition, the activity at 10 µM in experiment [1] is 35 to 50%.
For `CN1CCN(CCCOc2ccc(S(=O)(=O)N3CCC(c4c[nH]c5ccccc45)CC3)cc2)CC1` [Example 57, 3-(1-((4-(3-(4-methylpiperazin-1-yl)propoxy)phenyl)sulfonyl)piperidin-4-yl)-1H-indole], the activity at 10 µM in experiment [1] was 70 to 100%. Moreover, the IC50 on Pin1 (setting [4]) fell in the range of 10000 to 100000 nM.
The corresponding values for `Cc1[nH]c2ccccc2c1CCCNS(=O)(=O)c1ccc(OCCCN2CCN(C)CC2)cc1` [Example 58, N-(3-(2-methyl-1H-indol-3-yl)propyl)-4-(3-(4-methylpiperazin-1-yl)propoxy)benzenesulfonamide] are 70 to 100% and 1000 to 10000 nM.
Regarding `CN1CCC(CCCOc2ccc(S(=O)(=O)NCCCc3c[nH]c4ccc(F)cc34)cc2)CC1` [Example 59, N-(3-(5-fluoro-1H-indol-3-yl)propyl)-4-(3-(1-methylpiperidin-4-yl)propoxy)benzenesulfonamide], the IC50 is 1000 to 10000 nM in experiment [2] (setting [5]); below 10000 nM in experiment [2] (setting [6]); 1000 to 10000 nM on Pin1 (setting [4]); below 1000 nM in experiment [3] (setting [8]); below 1000 nM in experiment [3] (setting [9]). Moreover, in experiment [1], the activity at 10 µM is 35 to 50%.
On to `CN1CCC(CCCOc2ccc(S(=O)(=O)NCCCc3c[nH]c4ccccc34)cc2)CC1` [Example 60, N-(3-(1H-indol-3-yl)propyl)-4-(3-(1-methylpiperidin-4-yl)propoxy)benzenesulfonamide], for which the activity at 10 µM in experiment [1] lay within 50 to 70%. In addition, the IC50 at Pin1 (setting [4]) was 1000 to 10000 nM.
In the case of `O=S(=O)(NCCCc1c[nH]c2ccc(F)cc12)c1ccc(OCCCN2CCNCC2)cc1` [Example 61, N-(3-(5-fluoro-1H-indol-3-yl)propyl)-4-(3-(piperazin-1-yl)propoxy)benzenesulfonamide], the IC50 in experiment [2] (setting [5]) was 1000 to 10000 nM; in experiment [2] (setting [6]) it was below 10000 nM; at Pin1 (setting [7]), below 1000 nM; at Pin1 (setting [4]), below 1000 nM; in experiment [3] (setting [8]), below 1000 nM; in experiment [3] (setting [9]), below 1000 nM. Also, in experiment [1], the activity at 10 µM lay in the range of 0 to 35%.
As to `CN1CCN(CCCOc2ccc(S(=O)(=O)NCCCc3c[nH]c4ccc(Cl)cc34)cc2)CC1` [Example 66, N-(3-(5-chloro-1H-indol-3-yl)propyl)-4-(3-(4-methylpiperazin-1-yl)propoxy)benzenesulfonamide], the IC50 in experiment [2] (setting [5]) is 1000 to 10000 nM; in experiment [2] (setting [6]), below 10000 nM; at Pin1 (setting [7]), below 1000 nM; on Pin1 (setting [4]) it was below 1000 nM; in experiment [3] (setting [8]), below 1000 nM; in experiment [3] (setting [9]), below 1000 nM. For the same molecule, the activity at 10 µM in experiment [1] was in the range of 0 to 35%.
For the molecule `CNC1CN(CCCOc2ccc(S(=O)(=O)NCCCc3c[nH]c4ccc(Cl)cc34)cc2)C1` [Example 77, N-(3-(5-chloro-1H-indole-3-yl)propyl)-4-(3-(3-(methylamino)azetidine-1-yl)propoxy)benzenesulfonamide], the IC50 in experiment [2] (setting [5]) was above 10000 nM; on Pin1 (setting [7]), below 1000 nM; at Pin1 (setting [4]) it was below 1000 nM; in experiment [3] (setting [8]) it was 1000 to 10000 nM. Moreover, the activity at 10 µM in experiment [1] lay within 0 to 35%.
For `O=S(=O)(NCCCc1c[nH]c2ccc(Cl)cc12)c1ccc(OCCCN2CCC(Cl)CC2)cc1` [Example 78, N-(3-(5-chloro-1H-indol-3-yl)propyl)-4-(3-(4-chloropiperidin-1-yl)propoxy)benzenesulfonamide], the activity at 10 µM in experiment [1] lay in the range of 0 to 35%. Moreover, the IC50 at Pin1 (setting [4]) lay in the range of 1000 to 10000 nM.
The corresponding values for `O=S(=O)(NCCCc1c[nH]c2ccc(Cl)cc12)c1ccc(OCCCN2CCC(F)CC2)cc1` [Example 80, N-(3-(5-chloro-1H-indol-3-yl)propyl)-4-(3-(4-fluoropiperidin-1-yl)propoxy)benzenesulfonamide] are 35 to 50% and 1000 to 10000 nM.
Consider `O=S(=O)(NCCCc1c[nH]c2ccc(Cl)cc12)c1ccc(OCCCN2CCC(C(F)(F)F)CC2)cc1` [Example 81, N-(3-(5-chloro-1H-indol-3-yl)propyl)-4-(3-(4-(trifluoromethyl)piperidin-1-yl)propoxy)benzenesulfonamide], for which, in experiment [1], the activity at 10 µM is 0 to 35%. Further, the IC50 on Pin1 (setting [4]) lay within 1000 to 10000 nM.
As to `O=S(=O)(NCCCc1c[nH]c2ccc(Cl)cc12)c1ccc(OCCCN2CCC(F)(F)CC2)cc1` [Example 82, N-(3-(5-chloro-1H-indol-3-yl)propyl)-4-(3-(4,4-difluoropiperidin-1-yl)propoxy)benzenesulfonamide], the activity at 10 µM in experiment [1] lay within 70 to 100%. Further, the IC50 at Pin1 (setting [4]) lay in the range of 1000 to 10000 nM.
In the case of `CN1CCN(CCCOc2ccc(S(=O)(=O)NCCCc3c[nH]c4ccc(Cl)cc34)c3ccccc23)CC1` [Example 86, N-(3-(5-chloro-1H-indole-3-yl)propyl)-4-(3-(4-methylpiperazine-1-yl)propoxy)naphthalene-1-sulfonamide], the activity at 10 µM in experiment [1] lay within 70 to 100%. In addition, the IC50 at Pin1 (setting [7]) and on Pin1 (setting [4]) was below 1000 nM throughout.
With `O=S(=O)(NCCCc1c[nH]c2ccc(Cl)cc12)c1ccc(NCCCC2CCNCC2)cc1` [Example 88, N-(3-(5-chloro-1H-indole-3-yl)propyl)-4-((3-(piperidine-4-yl)propyl)amino)benzenesulfonamide], the IC50 is above 10000 nM in experiment [2] (setting [5]); below 1000 nM at Pin1 (setting [7]); below 1000 nM at Pin1 (setting [4]); below 1000 nM in experiment [3] (setting [8]); below 1000 nM in experiment [3] (setting [9]). Also, the activity at 10 µM in experiment [1] was in the range of 50 to 70%.
